pIC50: −log10 of the molar value. Values joined by “and” are separate entries in the source; they are usually repeats but may differ in a detail not shown here. Equal entries are not always repeated.

Drawing on PubChem BioAssay AID2060484 (Molecular Pharmacology Branch, DTP, NCI, 2025), this text covers viability, T/C and IC50 for seven molecules.

For this test, the system named is SUM149PT spheroids with HUVEC/MSC, viability. The test can be described thus: Anticancer human tumor SUM149PT cell line growth inhibition [GQUAD].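 As to all read-outs here: spheroids exposed to drugs for seven days before readout.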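 As to viability, T/C: percent viability relative to DMSO vehicle control taken as 100%.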 Particulars: for viability, T/C: stronger effect = lower value. An excerpt:
DNA G-quadruplex Stabilizer Agents in Combinations in Complex Spheroids
A high-throughput screen of multi-cell type tumor spheroids was designed to identify active combinations of DNA G-quadruplex stabilizer agents and targeted small molecules. Complex spheroids include a stromal component modeled by human endothelial cells (HUVEC) and fibroblasts modeled by human mesenchymal stem cells (MSCs). The concentration ranges selected for each drug and investigational agent were based upon clinically achievable concentrations if the clinical Cmax of the agent was known.
Compounds. The drugs and investigational agents: pidnarulex (CX-5461; NSC782164), APTO-253 (NSC789042), BRACO-19 (NSC847499), peposertib (NSC802822), ceralasertib (NSC780249), elimusertib (NSC800525), camonsertib (NSC841442), AZD-1390 (NSC803789), olaparib (NSC753686), talazoparib (NSC767125), ART-558 (NSC835418), sotorasib (NSC818433), MRTX-1133 (NSC836407), SN-38 (NSC673596), topotecan (NSC609699), etoposide (NSC141540), doxorubicin (NSC123127), gemcitabine (NSC613327), 5-fluorouracil (NSC19893), paclitaxel (NSC125973), vemurafenib (NSC761431), panobinostat (NSC761190), R-306465 (JNJ-16241199; NSC773264), adavosertib (NSC754352), TP-3654 (NSC805149), carboplatin (NSC241240), KSQ-4279 (NSC840948), and staurosporine (NSC755774) were obtained from the National Cancer Institute (NCI) Developmental Therapeutics Program Chemical Repository (34). The FDA-approved anticancer drug set is available from the NCI Developmental Therapeutics Program. […] The stock solutions were prepared in dimethyl sulfoxide (DMSO, Sigma-Aldrich, St. Louis, MO, cat. D2650) at 800-fold the tested concentration and stored at -70 degrees C prior to their use. All drugs and investigational agents were tested over a range starting from a high concentration at or near the clinical Cmax and decreasing in half-log increments. If the clinical Cmax for an agent had not been determined, the highest concentration tested was 10 microM.
2.3 Cell Culture. All cells were maintained in an incubator at 37 degrees C and 5% CO2 with 95% humidity. The PDC lines were cultured according to standard operating procedures established by the NCI PDMR. All PDCs were thawed and cultured in Matrigel-coated flasks prepared with a working solution of 1X Ham's F-12 nutrient mix, without supplementation (Invitrogen, cat. 11765054), 100 U/mL penicillin-streptomycin (Invitrogen, cat. 15140122), and 2.5% Matrigel (Corning Inc., cat. 354248) for the first three passages. The 857933-349-R-J2-PDC line was cultured in 6C/Colon 1B media, which includes advanced DMEM/F-12 (Thermo Fisher Scientific, cat. 12634028), 10 mM HEPES (Thermo Fisher Scientific, cat. 15630080), 1X GlutaMAX supplement (Thermo Fisher Scientific, cat. 35050061), 0.1 mg/mL primocin (InvivoGen, cat. ant-pm-2), 10% defined fetal bovine serum, heat inactivated (HyClone Laboratories Inc., cat. SH30070.03HI), 50% L-WRN conditioned media (ATCC, cat. CRL-3276), 1.25 mM N-Acetyl-L-cysteine (Sigma-Aldrich, cat. A9165), 10 mM nicotinamide (Sigma-Aldrich, cat. N0636), 1X B-27 supplement (Thermo Fisher Scientific, cat. 17504044), 1X N-2 supplement (Thermo Fisher Scientific, cat. 17502048), 10 microM Y-27632 dihydrochloride (Tocris Bioscience, cat. 1254), and 50 ng/mL human EGF recombinant protein (Thermo Fisher Scientific, cat. PHG0311). The 485176-168-R4-J1-PDC line was cultured in Panc media, which includes all 6C/Colon 1B media components plus 100 ng/mL human FGF-10 (Thermo Fisher Scientific, cat. 100-26), 500 nM SB-431542 (Selleckchem, cat. S1067), and gastrin (Tocris, cat. 3006).
[…]

[1] abbreviates: curve of first compound, second compound 0.0316 µM.
[2] abbreviates: curve of first compound, second compound 0.1 µM.
The mark [3] stands for this setting: curve of first compound, second compound 0.316 µM.
The mark [4] stands for this setting: curve of first compound, second compound 1 µM.
The mark [5] stands for this setting: curve of first compound, second compound 3.16 µM.
[6] abbreviates: curve of first compound, second compound 10 µM.
Setting [7] is: second compound 0.0316 µM, first compound 0.0316 µM.
Setting [8] is: second compound 0.0316 µM, first compound 0.1 µM.
Setting [9] is: second compound 0.0316 µM, first compound 0.316 µM.
[10] abbreviates: second compound 0.0316 µM, first compound 1 µM.
Setting [11] is: second compound 0.0316 µM, first compound 3.16 µM.
Setting [12] is: second compound 0.0316 µM, first compound 10 µM.
Where [13] appears, read: second compound 0.1 µM, first compound 0.0316 µM.
Setting [14] is: second compound 0.1 µM, first compound 0.1 µM.
Setting [15] is: second compound 0.1 µM, first compound 0.316 µM.
[16] abbreviates: second compound 0.1 µM, first compound 1 µM.
Setting [17] is: second compound 0.1 µM, first compound 3.16 µM.
[18] abbreviates: second compound 0.1 µM, first compound 10 µM.
The mark [19] stands for this setting: second compound 0.316 µM, first compound 0.0316 µM.
The mark [20] stands for this setting: second compound 0.316 µM, first compound 0.1 µM.
[21] abbreviates: second compound 0.316 µM, first compound 0.316 µM.
Where [22] appears, read: second compound 0.316 µM, first compound 1 µM.
Where [23] appears, read: second compound 0.316 µM, first compound 3.16 µM.
[24] abbreviates: second compound 0.316 µM, first compound 10 µM.
The mark [25] stands for this setting: second compound 1 µM, first compound 0.0316 µM.
[26] abbreviates: second compound 1 µM, first compound 0.1 µM.
Where [27] appears, read: second compound 1 µM, first compound 0.316 µM.
[28] abbreviates: second compound 1 µM, first compound 1 µM.
Setting [29] is: second compound 1 µM, first compound 3.16 µM.
The mark [30] stands for this setting: second compound 1 µM, first compound 10 µM.
Where [31] appears, read: second compound 3.16 µM, first compound 0.0316 µM.
[32] abbreviates: second compound 3.16 µM, first compound 0.1 µM.
Where [33] appears, read: second compound 3.16 µM, first compound 0.316 µM.
Setting [34] is: second compound 3.16 µM, first compound 1 µM.
Setting [35] is: second compound 3.16 µM, first compound 3.16 µM.
Where [36] appears, read: second compound 3.16 µM, first compound 10 µM.
[37] abbreviates: second compound 10 µM, first compound 0.0316 µM.
Setting [38] is: second compound 10 µM, first compound 0.1 µM.
The mark [39] stands for this setting: second compound 10 µM, first compound 0.316 µM.
Where [40] appears, read: second compound 10 µM, first compound 1 µM.
[41] abbreviates: second compound 10 µM, first compound 3.16 µM.
Where [42] appears, read: second compound 10 µM, first compound 10 µM.

Broadly, the viability, T/C is the ratio of treated to control. In general, pIC50 refers to the negative decadic logarithm of the IC50, by convention in mol/L. In the case of `C=CCn1c(=O)c2cnc(Nc3ccc(N4CCN(C)CC4)cc3)nc2n1-c1cccc(C(C)(C)O)n1`, the viability, T/C was 98.3% and 95.2% and 87.7% (compound 0.0316 µM); 73% and 67% and 53.4% (compound 0.1 µM); 32% and 32.6% and 26.9% (compound 0.316 µM); 20.9% and 19.1% and 16.4% (compound 1 µM); 12.8% and 11.1% and 8.08% (compound 3.16 µM); 8.94% and 7.14% and 6.33% (compound 10 µM). Further, the pIC50 (curve of compound) was 6.71 and 6.74 and 6.94.

As to `CC(C)(O)C1CCC(Nc2ccc3ncc(-c4cccc(C(F)(F)F)c4)n3n2)CC1` (stereo not drawn), the viability, T/C is 98.3% and 102% and 86% (compound 0.0316 µM); 86.1% and 89.2% and 65.1% (compound 0.1 µM); 76.1% and 82.5% and 72.4% (compound 0.316 µM); 63.5% and 63.8% and 49.3% (compound 1 µM); 47.9% and 49% and 37.8% (compound 3.16 µM); 61.8% and 58% and 41.8% (compound 10 µM). The pIC50 (curve of compound) was < 5.00 and 5.93.

Consider `COc1ncnc(C2CC2)c1-c1ncc2cnn(Cc3ccc(-c4nc(C(F)(F)F)cn4C(C)C)cc3)c2n1`, for which the viability, T/C is, setting by setting: (compound 0.0316 µM) 97.5% and 104% and 97.6%; (compound 0.1 µM) 74.3% and 85.3% and 87.7%; (compound 0.316 µM) 88.8% and 90.9% and 90.6%; (compound 1 µM) 76% and 81.9% and 80.4%; (compound 3.16 µM) 89.2% and 95.1% and 95.5%; (compound 10 µM) 95.5% and 94.5% and 101%. The pIC50 (curve of compound) was less than 5.00.

Consider `Cc1[nH]c2ccc(F)cc2c1-c1nc2c3cccnc3c3ncccc3c2[nH]1`, for which the viability, T/C by setting is: (compound 0.1 µM) 102% [middle of 12 runs]; (compound 0.316 µM) 104% [middle of 12 runs]; (compound 1 µM) 99% [middle of 12 runs]; (compound 10 µM) 98.4% [middle of 12 runs]. The pIC50 runs as follows: (compound alone, run of 03/18/2024) less than 5.00; (compound alone, run of 03/26/2024) less than 5.00.

In the case of `O=C(NO)c1cnc(N2CCN(S(=O)(=O)c3ccc4ccccc4c3)CC2)nc1`, the viability, T/C is 97.1% and 108% and 102% (compound 0.0316 µM); 86.9% and 95.1% and 86.5% (compound 0.1 µM); 48.5% (2×) and 56.6% (compound 0.316 µM); 0.52% and 2.34% and 1.78% (compound 1 µM); 0.32% and 0.27% and 0.08% (compound 3.16 µM); 0.29% and 0.71% (compound 10 µM). Besides, the pIC50 (curve of compound) is 6.53 and 6.45 and 6.54.

`C=CCn1c(=O)c2cnc(Nc3ccc(N4CCN(C)CC4)cc3)nc2n1-c1cccc(C(C)(C)O)n1` + CN(C)c1ccc(Nc2c3ccc(NC(=O)CCN4CCCC4)cc3nc3cc(NC(=O)CCN4CCCC4)ccc23)cc1: the pIC50 under setting [1] was 6.71; the pIC50 under setting [2] was 6.76; the pIC50 under setting [3] was 6.81; the pIC50 under setting [4] is 6.99; the pIC50 under setting [5] was 6.92; the pIC50 under setting [6] was 6.89. Moreover, the viability, T/C is 93.8% under setting [7]; 72.7% under setting [8]; 32.3% under setting [9]; 19.8% under setting [10]; 11.4% under setting [11]; 7.42% under setting [12]. Also, the viability, T/C under setting [13] was 92.8%; the viability, T/C under setting [14] was 69.2%; the viability, T/C under setting [15] was 28.1%; the viability, T/C under setting [16] is 20.1%; the viability, T/C under setting [17] was 9.53%; the viability, T/C under setting [18] is 9.35%. Moreover, the viability, T/C is 95.8% under setting [19]; 62.1% under setting [20]; 30% under setting [21]; 16.4% under setting [22]; 8.18% under setting [23]; 6.73% under setting [24]. In addition, the viability, T/C was 78% under setting [25]; 50.4% under setting [26]; 28.5% under setting [27]; 16.4% under setting [28]; 9.65% under setting [29]; 7.97% under setting [30]. Further, the viability, T/C under setting [31] was 87.7%; the viability, T/C under setting [32] is 54.1%; the viability, T/C under setting [33] is 29.4%; the viability, T/C under setting [34] is 17.9%; the viability, T/C under setting [35] is 7.8%; the viability, T/C under setting [36] was 7.28%. Further, the viability, T/C is 89.1% under setting [37]; 56.6% under setting [38]; 28% under setting [39]; 17.1% under setting [40]; 9.36% under setting [41]; 8.81% under setting [42].

Take `O=C(c1cc(Cc2n[nH]c(=O)c3ccccc23)ccc1F)N1CCN(C(=O)C2CC2)CC1` + CN(C)c1ccc(Nc2c3ccc(NC(=O)CCN4CCCC4)cc3nc3cc(NC(=O)CCN4CCCC4)ccc23)cc1: the pIC50 is less than 5.00 under setting [1]; less than 5.00 under setting [2]; less than 5.00 under setting [3]; less than 5.00 under setting [4]; less than 5.00 under setting [5]; less than 5.00 under setting [6]. Also, the viability, T/C was 104% under setting [7]; 103% under setting [8]; 94.5% under setting [9]; 100% under setting [10]; 102% under setting [11]; 88.8% under setting [12]. The viability, T/C runs as follows: under setting [13], 95%; under setting [14], 101%; under setting [15], 102%; under setting [16], 104%; under setting [17], 98%; under setting [18], 81.4%. In addition, the viability, T/C under setting [19] is 87.6%; the viability, T/C under setting [20] was 93.5%; the viability, T/C under setting [21] is 101%; the viability, T/C under setting [22] was 101%; the viability, T/C under setting [23] was 111%; the viability, T/C under setting [24] was 82%. The viability, T/C under setting [25] was 85.3%; the viability, T/C under setting [26] was 86.6%; the viability, T/C under setting [27] was 89.9%; the viability, T/C under setting [28] is 104%; the viability, T/C under setting [29] was 92.4%; the viability, T/C under setting [30] was 66.3%. In addition, the viability, T/C was 93.7% under setting [31]; 91% under setting [32]; 90.5% under setting [33]; 94.2% under setting [34]; 95.2% under setting [35]; 70.5% under setting [36]. Moreover, the viability, T/C is, setting by setting: under setting [37], 78.8%; under setting [38], 81.9%; under setting [39], 81.9%; under setting [40], 90.4%; under setting [41], 86.3%; under setting [42], 64.5%.
